Holding throughout (assay): NCI tumour cell line growth inhibition, 48 h
In assay [1] the test system is A549.
Assay [2] has as its system DU-145.
In assay [3] the test system is EKVX.
Assay [4] concerns HOP-62.
The test system of assay [5] is HT-29.
Assay [6] deals with KM12.
The test system of assay [7] is LOX IMVI.
Assay [8] deals with NCI/ADR-RES.
In assay [9] the test system is OVCAR-3.
Assay [10] relates to RXF 393.
Assay [11] deals with SF-295.
Assay [12] has as its system SK-MEL-5.
Assay [13] relates to SN12C.
Assay [14] relates to U-251.
The subject of assay [15] is UACC-257.
For assay [16], the system named is ACHN.
Assay [17] concerns HOP-92.
Assay [18] concerns NCI-H460.
Assay [19] deals with SK-MEL-2.

Each structure is given as a SMILES string.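 Each compound was tested at five concentrations against cells in 96-well plates for 48 hours. At the GI50, growth is halved.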 Active and inactive are the calls of the source. No stated cut-off is given here; in the data, active = GI50 up to about 1.1 µM and inactive = higher.

On to `CC1(C)CC2(C)CC1CC2O` (stereo not given), for which the GI50 in [1], in assay [2], in assay [3], in [4], in assay [5] and in [6] was > 100 µM (inactive) in each case. Besides, the GI50 in assay [7], in assay [8], in assay [9], in assay [10], in [11] and in assay [12] was > 100 µM (inactive) each time. Besides, the GI50 in [13], in assay [14] and in [15] was > 100 µM (inactive) throughout.
With `CC1=C(C(=O)Nc2cccc(Cl)c2)C(c2ccccc2F)C(C(=O)Nc2cccc(Cl)c2)=C(C)N1`, the GI50 was 7.78 µM (inactive) in assay [1]; 9.98 µM (inactive) in assay [16]; 6.22 µM (inactive) in assay [3]; 15.8 µM (inactive) in [4]; 1.15 µM (inactive) in [17]; 5.43 µM (inactive) in assay [5]. The GI50 in [6] was 7.55 µM (inactive); in assay [7], 7.1 µM (inactive); in assay [18], 6.7 µM (inactive); in [9] it was 10.8 µM (inactive); in assay [10], 7.24 µM (inactive); in [11] it was 17.3 µM (inactive). Further, the GI50 was 11.6 µM (inactive) in [19]; 13.5 µM (inactive) in assay [12]; 11 µM (inactive) in assay [13]; 12.6 µM (inactive) in [14]; 10.2 µM (inactive) in [15].
With `N#CC1(C#N)C(C#N)(C#N)C12CCCCCC2`, the GI50 in [1] is 14.7 µM (inactive); in assay [16] it was 11.1 µM (inactive); in assay [3] it was 17.3 µM (inactive); in assay [4] it was > 52.8 µM (inactive); in assay [17], 15.4 µM (inactive); in [5], 17.2 µM (inactive). The GI50 in [6] was 14 µM (inactive); in assay [7] it was 16.7 µM (inactive); in assay [18], > 47.1 µM (inactive); in assay [9], 16.1 µM (inactive); in assay [10], 10.4 µM (inactive); in assay [11], > 39.7 µM (inactive). Also, the GI50 in [19] is 13.2 µM (inactive); in assay [12], 18 µM (inactive); in assay [13], 18.1 µM (inactive); in [14], 14.1 µM (inactive); in assay [15] it was 13.9 µM (inactive).
As for `O=c1o[nH]/c(=N/c2ccccc2)n1-c1ccccc1`, the GI50 in assay [1], in [16], in assay [3], in assay [4], in [17] and in assay [5] was > 100 µM (inactive) in each case. Besides, the GI50 in [6], in assay [7], in assay [18], in assay [8], in assay [9] and in [10] was > 100 µM (inactive) in each case. Moreover, the GI50 in assay [11], in assay [19], in assay [12], in assay [13], in assay [14] and in [15] was > 100 µM (inactive) in each case.
For the compound `CN(C)CCNC(=O)c1cccc2c1nc(-c1ccncc1)c1ccccc12`, the GI50 is 0.552 µM (active) in [1]; 1.65 µM (inactive) in [16]; 2.47 µM (inactive) in assay [3]; 3.78 µM (inactive) in [4]; 2.09 µM (inactive) in [17]; 3.32 µM (inactive) in assay [5]. For the same compound, the GI50 in [6] is 5.28 µM (inactive); in [7], 1.35 µM (inactive); in assay [18], 0.0408 µM (active); in assay [9] it was 5.35 µM (inactive); in [10] it was 2.3 µM (inactive); in [11] it was 2.85 µM (inactive). Also, the GI50 in assay [19] was 6.12 µM (inactive); in assay [12], 1.81 µM (inactive); in assay [13] it was 1.58 µM (inactive); in assay [14] it was 2.34 µM (inactive); in [15], 3.01 µM (inactive).
For `CC1=NN(c2ccccc2)C(=O)C1=C1SCCS1`, the GI50 is > 70 µM (inactive) in [1]; 97.1 µM (inactive) in [16]; 47.5 µM (inactive) in assay [3]; > 100 µM (inactive) in assay [4]; 37 µM (inactive) in assay [17]; > 74.5 µM (inactive) in [5]. Further, the GI50 in assay [6] was > 88.9 µM (inactive); in assay [7], 42.6 µM (inactive); in assay [18], 50.7 µM (inactive); in assay [9], 34.9 µM (inactive); in [10], 37 µM (inactive); in assay [11] it was > 71.8 µM (inactive). In addition, the GI50 was > 100 µM (inactive) in assay [19]; 59.3 µM (inactive) in [12]; > 83 µM (inactive) in assay [13]; > 53.2 µM (inactive) in assay [14]; > 74.6 µM (inactive) in assay [15].
As to `CCC1CN2CCc3c([nH]c4ccccc34)C2C[C@@H]1CC(=O)N(C)C` (stereo not given in full), the GI50 in [1] was > 100 µM (inactive); in assay [16], > 100 µM (inactive); in [3], > 100 µM (inactive); in assay [4], > 100 µM (inactive); in assay [17], 51.6 µM (inactive); in assay [5] it was > 100 µM (inactive). Besides, the GI50 in assay [6], in assay [7], in assay [18], in assay [9], in assay [10] and in [11] was > 100 µM (inactive) throughout. Further, the GI50 in assay [19], in assay [12], in [13], in [14] and in assay [15] was > 100 µM (inactive) in each case.
Take `COc1ccc(/C=C\c2cc(OC)c3c(c2)OCO3)c(O)c1O`: the GI50 in assay [1] was 9.04 µM (inactive); in assay [16], 11.2 µM (inactive); in assay [3] it was 11.7 µM (inactive); in assay [4], 7.59 µM (inactive); in assay [17], 5.55 µM (inactive); in assay [5] it was 20.7 µM (inactive). In addition, the GI50 in [6] was 5.62 µM (inactive); in assay [7], 4.53 µM (inactive); in assay [18], 5.37 µM (inactive); in assay [9], 4.78 µM (inactive); in [10], 3.94 µM (inactive); in [11], 8.3 µM (inactive). In addition, the GI50 was 8.53 µM (inactive) in assay [19]; 2.3 µM (inactive) in assay [12]; 15 µM (inactive) in assay [13]; 6.05 µM (inactive) in assay [14]; 14.1 µM (inactive) in assay [15].
